Measured values taken from ChEMBL document CHEMBL1759992.
Active and inactive are the calls of the source. The calls are words filed in the database; no cut-off is given here.

Tests used:
Rattus norvegicus [1] = test: Inhibition of lethal factor-induced toxicity in Fischer 344 rat assessed as enhancement of survival rate at 5 mg/kg, iv followed by administration of 10 ug lethal toxin after 20 to 30 mins of compound dosing; format: functional, organism-based; set-up: dose 5 mg/kg
Rattus norvegicus [2] = test: Inhibition of lethal factor-induced toxicity in Fischer 344 rat assessed as enhancement of survival rate at 2.5 mg/kg, iv followed by administration of 10 ug lethal toxin after 20 to 30 mins of compound dosing; format: functional, organism-based; set-up: dose 2.5 mg/kg

In the case of O=C(NO)[C@@H](CCCCNCc1ccc(F)cc1)Nc1ccc(F)c(Cl)c1, the Survival (Rattus norvegicus [1]) was “inactive”.
CO[C@H](C[C@H](CCCCCNCCc1ccc(F)cc1)C(=O)NO)c1ccc(F)cc1 was tested, and the Survival (Rattus norvegicus [1]) was “inactive”.
In the case of CO[C@H](C[C@H](CCCCNCc1ccc(F)cc1)C(=O)NO)c1ccc(F)cc1, the Survival (Rattus norvegicus [2]) was “inactive” and the Survival (Rattus norvegicus [1]) was “Active”.
With Cc1cc(CNCCCC[C@@H](Oc2ccc(F)c(C)c2)C(=O)NO)ccc1F the Survival (Rattus norvegicus [1]) was “inactive”.
With Cc1cc(N[C@H](CCCCNCc2ccc(F)cc2)C(=O)NO)cc(C)c1F the Survival (Rattus norvegicus [2]) was “Active” and the Survival (Rattus norvegicus [1]) was “Active”.
Cc1cc(O[C@H](CCCCNCc2ccc(F)cc2)C(=O)NO)cc(C)c1F was tested, and the Survival (Rattus norvegicus [1]) was “inactive”.
For Cc1cc(O[C@H](CCCCCNCCc2ccc(F)cc2)C(=O)NO)cc(C)c1F, the Survival (Rattus norvegicus [1]) was “inactive”.
In the case of CO[C@H](C[C@H](CCCCCNCc1ccc(F)cc1)C(=O)NO)c1ccc(F)cc1, the Survival (Rattus norvegicus [1]) was “inactive”.
With Cc1cc(O[C@H](CCCCCNCc2ccc(F)cc2)C(=O)NO)cc(C)c1F the Survival (Rattus norvegicus [1]) was “inactive”.
With Cc1cc(CNCCCC[C@@H](Nc2ccc(F)c(C)c2)C(=O)NO)ccc1F the Survival (Rattus norvegicus [1]) was “inactive”.
With Cc1cc(CNCCCC[C@@H](Nc2cc(C)c(F)c(C)c2)C(=O)NO)ccc1F the Survival (Rattus norvegicus [2]) was “inactive” and the Survival (Rattus norvegicus [1]) was “Active”.
